Read-outs that look alike come from different tables or passages of the source.
Columns and labels:
[1] = target: VIM-1 (Pseudomonas aeruginosa (strain ATCC 15692 / DSM 22644 / CIP 104116 / JCM 14847 / LMG 12228 / 1C / PRS 101 / PAO1), UniProt A0A0F7KYQ8); assay: biochemical; details: CCF2-FA substrate, 30 pM enzyme, 2 hours at 25° C.
In short: (§1)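 Class B activity is measured in the presence of compound by fluorescence with CCF2-FA after a 2-hour incubation at 25° C. IC50 is taken from a 4-parameter fit of semi-logarithmic dose-response data.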

[2] = target: NDM-1 (Klebsiella pneumoniae, UniProt C7C422); assay: biochemical; assay type: biochemical; details: fluorescence assay, CCF2-FA substrate, 1 pM enzyme, 2 hours at 25° C.; read-out: NDM-1 IC50
NDM-1, sequence (C7C422 whole entry, looked up, species assumed): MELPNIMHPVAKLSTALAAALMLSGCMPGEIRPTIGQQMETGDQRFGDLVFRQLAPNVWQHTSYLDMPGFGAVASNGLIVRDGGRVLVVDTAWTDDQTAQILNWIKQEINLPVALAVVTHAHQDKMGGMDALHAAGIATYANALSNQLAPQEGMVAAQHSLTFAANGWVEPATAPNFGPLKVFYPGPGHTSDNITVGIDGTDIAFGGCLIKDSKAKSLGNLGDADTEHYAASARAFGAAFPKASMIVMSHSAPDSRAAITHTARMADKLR
In short: as §1

[3] = target: IMP-1 (Serratia marcescens, UniProt P52699); assay: biochemical; assay type: biochemical; details: fluorescence assay, CCF2-FA substrate, 2 pM enzyme, 2 hours at 25° C.; read-out: IMP-1 IC50
IMP-1, sequence (P52699 whole entry, looked up, species assumed): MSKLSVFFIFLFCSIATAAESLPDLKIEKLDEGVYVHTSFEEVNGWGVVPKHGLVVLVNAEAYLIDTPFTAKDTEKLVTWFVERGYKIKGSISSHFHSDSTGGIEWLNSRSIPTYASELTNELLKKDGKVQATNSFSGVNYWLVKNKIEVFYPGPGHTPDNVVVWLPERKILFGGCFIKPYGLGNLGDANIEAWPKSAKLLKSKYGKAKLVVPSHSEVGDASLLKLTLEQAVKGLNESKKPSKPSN
In short: as §1

[4] = test system: Pseudomonas aeruginosa MB9798 vs MB9799; details: ratio MITC95 PA_9798/MITC95 PA_9799
Excerpt: The strain background was Pseudomonas aeruginosa PAO1.
The strain set was then used as a pair to determine the effect of metallo-β-lactamase inhibitors of Formula I on the MIC of imipenem and/or ceftazidime. A fixed concentration of antibiotic was included in standard microbroth MIC tests, usually at the CLSI (Clinical and Laboratory Standards Institute) breakpoint concentration. A fixed amount of a class A/C beta-lactamase inhibitor was also included to inhibit the resident Pseudomonas AmpC enzyme. A serial titration of the metallo-β-lactamase inhibitor was included and the concentration of metallo-β-lactamase inhibitor which restores susceptibility of the strain to the included antibiotic was recorded. That concentration of metallo-β-lactamase inhibitor was then compared between the two strains to determine the fold difference between the efflux+ (MB9798) and efflux− (MB9799) strains. This was taken as an indication of the extent to which the MBLi is subject to efflux.

[5] = test system: Klebsiella pneumoniae expressing VIM-1 (IHMA599644); assay type: cell-based; details: with imipenem 1 μg/ml; 95% inhibition of bacterial growth
In short: (§2)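 Clinical strains grown overnight on blood agar at 35°C, colonies suspended in saline, diluted 1:100 into 1.1×CAMHB. Test compound titrated with imipenem at 1 μg/ml; incubated 22–24 h at 35°C, growth read by absorbance.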

[6] = test system: Escherichia coli expressing NDM-1 (CLB30005, CLB30016); assay type: cell-based; details: with imipenem 1 μg/ml; 95% inhibition of bacterial growth
In short: as §2

[7] = test system: Serratia marcescens expressing IMP-1 (CL5741); assay type: cell-based; details: with imipenem 1 μg/ml; 95% inhibition of bacterial growth
In short: as §2

[8] = test system: Pseudomonas aeruginosa efflux+ (MB9798), IMP-1; assay type: cell-based; details: concentration restoring susceptibility to imipenem at 2 μg/mL in the presence of a class A, C, D serine β-lactamase inhibitor closely related to relebactam
In short: (§3)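 Steps: add fixed imipenem and/or ceftazidime (usually CLSI breakpoint) and fixed AmpC-directed class A/C inhibitor to microbroth MIC wells; titrate MBL inhibitor; record concentration regaining susceptibility for each PAO1-derived strain; divide efflux+ by efflux− value.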

[9] = test system: Pseudomonas aeruginosa efflux− (MB9799), IMP-1; assay type: cell-based; details: concentration restoring susceptibility to imipenem at 2 μg/mL in the presence of a class A, C, D serine β-lactamase inhibitor closely related to relebactam
In short: as §3

[10] = fluorescence assay, read-out: VIM-1 IC50

Cl.Cn1c(N)nc2c(-c3ccc(S(=O)(=O)NCCN)c(S(N)(=O)=O)c3-c3nn[nH]n3)cccc21 [Example 10, 4-(2-amino-1-methyl-1H-benzo[d]imidazol-4-yl)-N1-(2-aminoethyl)-3-(2H-tetrazol-5-yl)benzene-1,2-disulfonamide hydrochloride] gave an IC50 [1, 10] of 0.177 nM, an IC50 [2] of 0.0901 nM and an IC50 [3] of 0.235 nM. The Efflux ratio [4] was 1.00, the “Klebsiella pneumoniae expressing VIM-1 (IHMA599644) MITC95” value [5] was 1.531 µM and the “Escherichia coli expressing NDM-1 (CLB30016) MITC95” value [6] was 0.1875 µM. The “Serratia marcescens expressing IMP-1 (CL5741) MITC95” value [7] was 0.6406 µM, the “P. aeruginosa expressing IMP-1, efflux + (MB9798) MITC95” value [8] was 0.7656 µM and the “P. aeruginosa expressing IMP-1, efflux − (MB9799) MITC95” value [9] was 0.7656 µM.

Work on NCCNS(=O)(=O)c1ccc(-c2cccc3[nH]c(N)nc23)c(-c2nn[nH]n2)c1S(N)(=O)=O [Example 12, 4-(2-amino-1H-benzo[d]imidazol-4-yl)-N^1-(2-aminoethyl)-3-(2H-tetrazol-5-yl)benzene-1,2-disulfonamide] yielded an IC50 ([1]; VIM-1 IC50, fluorescence assay) of 0.102 nM, an IC50 [2] of 0.0429 nM and an IC50 [3] of 0.316 nM. The Efflux ratio [4] was 0.75, the “Klebsiella pneumoniae expressing VIM-1 (IHMA599644) MITC95” value [5] was 0.5703 µM and the “Escherichia coli expressing NDM-1 (CLB30016) MITC95” value [6] was 0.25 µM. For the same molecule, the “Serratia marcescens expressing IMP-1 (CL5741) MITC95” value [7] was 0.6302 µM, the “P. aeruginosa expressing IMP-1, efflux + (MB9798) MITC95” value [8] was 0.375 µM and the “P. aeruginosa expressing IMP-1, efflux − (MB9799) MITC95” value [9] was 0.5 µM.

With NCCNS(=O)(=O)c1ccc(-c2cccc3oc(C(=O)O)nc23)c(-c2nn[nH]n2)c1S(N)(=O)=O [Example 13, 4-(4-(N-(2-aminoethyl)sulfamoyl)-3-sulfamoyl-2-(2H-tetrazol-5-yl)phenyl)benzo[d]oxazole-2-carboxylic acid] the IC50 [1, 10] was 0.412 nM, the IC50 [2] was 0.0757 nM and the IC50 [3] was 2.14 nM. The Efflux ratio [4] was 2.00, the “Klebsiella pneumoniae expressing VIM-1 (IHMA599644) MITC95” value [5] was 25 µM and the “Escherichia coli expressing NDM-1 (CLB30016) MITC95” value [6] was 12.5 µM. For the same molecule, the “Serratia marcescens expressing IMP-1 (CL5741) MITC95” value [7] was 12.5 µM, the “P. aeruginosa expressing IMP-1, efflux + (MB9798) MITC95” value [8] was 12.5 µM and the “P. aeruginosa expressing IMP-1, efflux − (MB9799) MITC95” value [9] was 6.25 µM.

For Nc1nc2c(-c3ccc(S(=O)(=O)NC4CCS(=O)(=O)CC4)c(S(N)(=O)=O)c3-c3nnn[nH]3)cccc2s1 [Example 14, 4-(2-amino-1,3-benzothiazol-4-yl)-N1-(1,1-dioxidotetrahydro-2H-thiopyran-4-yl)-3-(1H-tetrazol-5-yl)benzene-1,2-disulfonamide], the IC50 [1, 10] was 0.176 nM, the IC50 [2] was 0.0255 nM and the IC50 [3] was 0.173 nM. For the same molecule, the Efflux ratio [4] was 1.00, the “Klebsiella pneumoniae expressing VIM-1 (IHMA599644) MITC95” value [5] was 12.5 µM and the “Escherichia coli expressing NDM-1 (CLB30016) MITC95” value [6] was 12.5 µM. The “Serratia marcescens expressing IMP-1 (CL5741) MITC95” value [7] was 3.125 µM, the “P. aeruginosa expressing IMP-1, efflux + (MB9798) MITC95” value [8] was 3.125 µM and the “P. aeruginosa expressing IMP-1, efflux − (MB9799) MITC95” value [9] was 3.125 µM.

Work on Nc1nc2c(-c3ccc(S(=O)(=O)NCCN4CCNC(=O)C4)c(S(N)(=O)=O)c3-c3nnn[nH]3)cccc2s1 [Example 15, 4-(2-amino-1,3-benzothiazol-4-yl)-N1-[2-(3-oxopiperazin-1-yl)ethyl]-3-(1H-tetrazol-5-yl)benzene-1,2-disulfonamide] yielded an IC50 [1, 10] of 0.394 nM, an IC50 [2] of 0.0926 nM and an IC50 [3] of 0.451 nM. The Efflux ratio [4] was 1.00, the “Klebsiella pneumoniae expressing VIM-1 (IHMA599644) MITC95” value [5] was 25 µM and the “Escherichia coli expressing NDM-1 (CLB30016) MITC95” value [6] was 50 µM. For the same molecule, the “Serratia marcescens expressing IMP-1 (CL5741) MITC95” value [7] was 12.5 µM, the “P. aeruginosa expressing IMP-1, efflux + (MB9798) MITC95” value [8] was 12.5 µM and the “P. aeruginosa expressing IMP-1, efflux − (MB9799) MITC95” value [9] was 12.5 µM.

For CN(C)CC(F)(F)CNS(=O)(=O)c1ccc(-c2cccc3sc(N)nc23)c(-c2nnn[nH]2)c1S(N)(=O)=O [Example 16, 4-(2-amino-1,3-benzothiazol-4-yl)-N1-[3-(dimethylamino)-2,2-difluoropropyl]-3-(1H-tetrazol-5-yl)benzene-1,2-disulfonamide], the IC50 [1, 10] was 0.461 nM, the IC50 [2] was 0.0921 nM and the IC50 [3] was 0.442 nM. The Efflux ratio [4] was 16.00, the “Klebsiella pneumoniae expressing VIM-1 (IHMA599644) MITC95” value [5] was 25 µM and the “Escherichia coli expressing NDM-1 (CLB30016) MITC95” value [6] was 25 µM. The “Serratia marcescens expressing IMP-1 (CL5741) MITC95” value [7] was 12.5 µM, the “P. aeruginosa expressing IMP-1, efflux + (MB9798) MITC95” value [8] was 100 µM and the “P. aeruginosa expressing IMP-1, efflux − (MB9799) MITC95” value [9] was 6.25 µM.

CN1CCOC(CNS(=O)(=O)c2ccc(-c3cccc4sc(N)nc34)c(-c3nnn[nH]3)c2S(N)(=O)=O)C1 (stereo not drawn) [Example 17, 4-(2-amino-1,3-benzothiazol-4-yl)-N1-[(4-methylmorpholin-2-yl)methyl]-3-(1H-tetrazol-5-yl)benzene-1,2-disulfonamide] was tested, and the IC50 [1, 10] was 0.41 nM, the IC50 [2] was 0.0889 nM and the IC50 [3] was 0.43 nM. The Efflux ratio [4] was 2.00, the “Klebsiella pneumoniae expressing VIM-1 (IHMA599644) MITC95” value [5] was 12.5 µM and the “Escherichia coli expressing NDM-1 (CLB30016) MITC95” value [6] was 12.5 µM. The “Serratia marcescens expressing IMP-1 (CL5741) MITC95” value [7] was 6.25 µM, the “P. aeruginosa expressing IMP-1, efflux + (MB9798) MITC95” value [8] was 12.5 µM and the “P. aeruginosa expressing IMP-1, efflux − (MB9799) MITC95” value [9] was 6.25 µM.

In the case of CN1CCCC(NS(=O)(=O)c2ccc(-c3cccc4sc(N)nc34)c(-c3nnn[nH]3)c2S(N)(=O)=O)C1 (stereo not drawn) [Example 18, 4-(2-amino-1,3-benzothiazol-4-yl)-N1-(1-methylpiperidin-3-yl)-3-(1H-tetrazol-5-yl)benzene-1,2-disulfonamide], the IC50 [1, 10] is reported as 0.271 nM, the IC50 [2] is reported as 0.0488 nM and the IC50 [3] is reported as 0.268 nM. The Efflux ratio [4] was 1.00, the “Klebsiella pneumoniae expressing VIM-1 (IHMA599644) MITC95” value [5] was 6.25 µM and the “Escherichia coli expressing NDM-1 (CLB30016) MITC95” value [6] was 6.25 µM. For the same molecule, the “Serratia marcescens expressing IMP-1 (CL5741) MITC95” value [7] was 3.125 µM, the “P. aeruginosa expressing IMP-1, efflux + (MB9798) MITC95” value [8] was 3.125 µM and the “P. aeruginosa expressing IMP-1, efflux − (MB9799) MITC95” value [9] was 3.125 µM.

Nc1nc2c(-c3ccc(S(=O)(=O)NCC4CCC(=O)N4)c(S(N)(=O)=O)c3-c3nnn[nH]3)cccc2s1 (stereo not drawn) [Example 19, 4-(2-amino-1,3-benzothiazol-4-yl)-N1-[(5-oxopyrrolidin-2-yl)methyl]-3-(1H-tetrazol-5-yl)benzene-1,2-disulfonamide] was tested, and the IC50 [1, 10] was 0.335 nM, the IC50 [2] was 0.0953 nM and the IC50 [3] was 0.486 nM. For the same molecule, the Efflux ratio [4] was 1.00, the “Klebsiella pneumoniae expressing VIM-1 (IHMA599644) MITC95” value [5] was 25 µM and the “Escherichia coli expressing NDM-1 (CLB30016) MITC95” value [6] was 50 µM. For the same molecule, the “Serratia marcescens expressing IMP-1 (CL5741) MITC95” value [7] was 6.25 µM, the “P. aeruginosa expressing IMP-1, efflux + (MB9798) MITC95” value [8] was 6.25 µM and the “P. aeruginosa expressing IMP-1, efflux − (MB9799) MITC95” value [9] was 6.25 µM.

Cn1cnc(CNS(=O)(=O)c2ccc(-c3cccc4sc(N)nc34)c(-c3nnn[nH]3)c2S(N)(=O)=O)n1 [Example 20, 4-(2-amino-1,3-benzothiazol-4-yl)-N^1-[(1-methyl-1H-1,2,4-triazol-3-yl)methyl]-3-(1H-tetrazol-5-yl)benzene-1,2-disulfonamide] showed an IC50 [1, 10] of 0.494 nM, an IC50 [2] of 0.0973 nM and an IC50 [3] of 0.817 nM. The Efflux ratio [4] was 1.00, the “Klebsiella pneumoniae expressing VIM-1 (IHMA599644) MITC95” value [5] was 25 µM and the “Escherichia coli expressing NDM-1 (CLB30016) MITC95” value [6] was 25 µM. For the same molecule, the “Serratia marcescens expressing IMP-1 (CL5741) MITC95” value [7] was 6.25 µM, the “P. aeruginosa expressing IMP-1, efflux + (MB9798) MITC95” value [8] was 6.25 µM and the “P. aeruginosa expressing IMP-1, efflux − (MB9799) MITC95” value [9] was 6.25 µM.

With CN(C)CCNS(=O)(=O)c1ccc(-c2cccc3sc(N)nc23)c(-c2nnn[nH]2)c1S(N)(=O)=O [Example 22, 4-(2-amino-1,3-benzothiazol-4-yl)-N^1-[2-(dimethylamino)ethyl]-3-(1H-tetrazol-5-yl)benzene-1,2-disulfonamide] the IC50 [1, 10] was 0.233 nM, the IC50 [2] was 0.0348 nM and the IC50 [3] was 0.413 nM. For the same molecule, the Efflux ratio [4] was 1.00, the “Klebsiella pneumoniae expressing VIM-1 (IHMA599644) MITC95” value [5] was 3.125 µM and the “Escherichia coli expressing NDM-1 (CLB30016) MITC95” value [6] was 6.25 µM. The “Serratia marcescens expressing IMP-1 (CL5741) MITC95” value [7] was 3.125 µM, the “P. aeruginosa expressing IMP-1, efflux + (MB9798) MITC95” value [8] was 1.563 µM and the “P. aeruginosa expressing IMP-1, efflux − (MB9799) MITC95” value [9] was 1.563 µM.

— patent US10221163B2 (priority 2015, dated 2019)
